Source: article PMC10362908 (2023)

Columns and labels:
Conditions in all cases: Na+ 10 mM; Mg2+ carried over from 12 mM annealing buffer; 5 mM TRIS pH 7.0, 20 °C; 0.5 µM DNA, 160 µM PIC; super aggregate
[1] = system: GC (DX-tile) (DNA, junction) TCAGAAGAACGCGCGCGCGC/ACGCATTTGTCGTTCTTCTGATGACCTTGCA/GTACACCTCGAGCGCGCGCGCTTGTCTGCAA/TTGCAGACAAGACAAATGCGT/TGCAAGGTCCGCGAGGTGTAC; assay: fluorescence emission (523 nm excitation), aggregate formation
[2] = system: dsDNA (DNA, duplex) TGCAAGGTCCGCGAGGTGTAC/GTACACCTCGCGGACCTTGCA; assay: as above
[3] = system: dsDNA + AF (DNA, duplex, amino modifier C6 dT at 19 of strand 1) TGCAAGGTCCGCGAGGTGTAC/GTACACCTCGCGGACCTTGCA; assay: absorbance (580 nm aggregate peak, AF red shift)
[4] = system: ssDNA (DNA, single strand) TGCAAGGTCCGCGAGGTGTAC; assay: fluorescence emission (523 nm excitation), aggregate formation
[5] = system: AT + AF (DX-tile) (DNA, junction, amino modifier C6 dT at 19 of strand 5) TCAGAAGAACAAAAAAAAAA/ACGCATTTGTCGTTCTTCTGATGACCTTGCA/GTACACCTCGCTTTTTTTTTTGTGTCTGCAA/TTGCAGACACGACAAATGCGT/TGCAAGGTCCGCGAGGTGTAC; assay: absorbance (580 nm aggregate peak, AF red shift)
[6] = system: ssDNA + AF (Strand 5-AF) (DNA, single strand, amino modifier C6 dT at 19) TGCAAGGTCCGCGAGGTGTAC; assay: absorbance (580 nm aggregate peak, AF red shift)
[7] = system: AT (DX-tile) (DNA, junction) TCAGAAGAACAAAAAAAAAA/ACGCATTTGTCGTTCTTCTGATGACCTTGCA/GTACACCTCGCTTTTTTTTTTGTGTCTGCAA/TTGCAGACACGACAAATGCGT/TGCAAGGTCCGCGAGGTGTAC; assay: fluorescence emission (523 nm excitation), aggregate formation
[8] = system: GC + AF (DX-tile) (DNA, junction, amino modifier C6 dT at 19 of strand 5) TCAGAAGAACGCGCGCGCGC/ACGCATTTGTCGTTCTTCTGATGACCTTGCA/GTACACCTCGAGCGCGCGCGCTTGTCTGCAA/TTGCAGACAAGACAAATGCGT/TGCAAGGTCCGCGAGGTGTAC; assay: absorbance (580 nm aggregate peak, AF red shift)

binding [1]: yes
binding [2]: yes
binding [3]: yes
binding [4]: yes
binding [5]: yes
binding [6]: yes
binding [7]: yes
binding [8]: yes
Compound: CCN1C(=Cc2ccc3ccccc3[n+]2CC)C=Cc2ccccc21
